Experimental data taken from patent EP4653435A1, “PRMT5-MTA INHIBITOR” (Suzhou Puhe Biopharma Co., Ltd., priority 2023, dated 2024).

Legend:
[1] = Liver microsomal stability assay, human; settings: for CLint scaled at 1 µM: liver microsomes
Experimental: (§7) The compounds to be tested were co-incubated with liver microsomes of different species with or without the addition of NADPH. The final concentration of the test compounds in the test system was 1 µM, the final concentration of NADPH was 1 mM, and the final concentration of liver microsomes was 0.5 mg/mL.

HCT116-MTAPdel = test: 2D antiproliferative assay (CTG cell viability), MTAP-deficient cells; assay type: cell-based; settings: for IC50: Homo sapiens, HCT-116, HCT116 MTAP-deficient cells, 7-10 days, CTG, read-out: HCT116-MTAPdel/IC50/nM; for HCT116WT IMTAPdel selectivity: ratio IC50 wild type / MTAPdel, antiproliferation
Experimental: (§1) HCT116 wild-type and MTAP-deficient cells were cultured in McCoy's 5A medium containing 10% FBS and 1% penicillin-streptomycin, and cultured in a 37°C, 5% CO2 constant temperature incubator. 40 µL of cell suspension was introduced into each well of a 384-well microplate. 40 nL of different concentrations of test compounds were added to each well using an Echo, before culturing in a 37°C, 5% CO2 constant temperature incubator for 7-10 days. 40 µL of CTG solution (Promega, Cat No. G7573) was added to each well and incubated in a 37°C, 5% CO2 constant temperature incubator for 30 minutes in the dark.

HCT116-MTAPwt = test: 2D antiproliferative assay (CTG cell viability), wild-type cells; assay type: cell-based; settings: Homo sapiens, HCT-116, 7-10 days
Experimental: as §1

[2] = Membrane permeability: Caco-2 assay; assay type: in vitro ADME; settings: human
Experimental: The membrane permeability of the molecules of the invention was evaluated. […] Efflux Ratio = Papp(B−A) /Papp(A−B) [formula]

SDMA/HCT116-MTAPwt = test: In-cell arginine symmetric dimethylation inhibition (In-cell western, ICW), wild-type cells; assay type: cell-based; settings: Homo sapiens, HCT-116, 96 hours
Experimental: (§2) 60 nL of different concentrations of compounds were added to each well using an Echo, and incubated at 37°C, 5% CO2 for 96 hours.
(§3) Next, 50 µL of 4% paraformaldehyde solution was added to each well and incubated at room temperature for 20 minutes to fix the cells. The solution in the wells was removed, and each well was rinsed four times with PBS solution containing 0.1% Tween 20 (PBST). To each well was then added 30 µL of ice-cold methanol. After standing at -20°C for 10 minutes, the methanol was removed and the wells washed four times with PBST. 30 µL of Odyssey blocking solution containing 0.5% Tween 20 was added to each well and shaken for 2 hours at room temperature. The blocking solution was removed and 30 µL of primary antibody (Symmetric Di-Methyl Arginine Motif [sdma-RG] MultiMab™ Rabbit mAb mix) diluted at 1:500 in Odyssey blocking solution containing 0.5% Tween 20 was added to each well. The plates were incubated overnight at 4°C, before removing the primary antibody and rinsing each well four times with PBST, 5 minutes per rinse. Secondary antibody (goat anti-rabbit IRDye 800CW, 1:800) and nuclear stain (DRAQ5, 1:10000) diluted in Odyssey blocking solution containing 0.5% Tween 20 were then added to each well before incubating at room temperature for 2 hours in the dark. The secondary antibody was removed, and the wells rinsed four times with PBST.
(§4) The sdme-RG and DRAQ5 signals were scanned at 800 nm and 700 nm respectively on a Li-Cor Odyssey instrument and the signal values recorded. The sdme-RG/DRAQ5 ratio was used to calculate the percentage inhibition of arginine symmetric dimethylation (SDMA), and the IC50 value calculated using GraphPad Prism software.

[3] = Mouse pharmacokinetics testing; assay type: in vivo, CD1 female mice; settings: in vivo
Experimental: CD1 female mice were used as test animals and administered the compounds orally/intravenously (oral dosage was 10 mg/kg and intravenous dosage was 2 mg/kg). Test protocol: Each oral and intravenous group consisted of three mice. […] Plasma drug concentrations after oral and intravenous administration were determined by LC/MS/MS, and the collected data analyzed using AB Sciex QTRAP 6500 software.

SDMA/HCT116-MTAPdel = test: In-cell arginine symmetric dimethylation inhibition (In-cell western, ICW), MTAP-deficient cells; assay type: cell-based; settings: for IC50: Homo sapiens, HCT-116, HCT116 MTAP-deficient cells, 96 hours; for Selectivity wt/MTAPdel: ratio SDMA IC50 wt / MTAPdel
Experimental: as §2, §3, §4

[4] = Liver microsomal stability assay, mouse; assay type: in vitro ADME; settings: mouse liver microsomes 0.5 mg/mL, compound 1 µM, NADPH 1 mM, 60 minute
Experimental: as §7

MDR1 (P-gp) = test: in vitro; settings: dog, MDCK-MDR1, pH 7.4
Experimental: (§5) The membrane permeability of the molecules of the present invention was evaluated to predict their permeability to the brain.
(§6) The specific procedure was: 1. MDCK-MDR1 cells were pre-cultured at a density of 1.56*10^6 cells/mL in a 96-well plate at 37°C for 7 days. 2. The MDCKII-MDR1 plate was taken out of the incubator, rinsed twice with pre-warmed HBSS (10 mM HEPES, pH 7.4), and then incubated at 37°C for 30 minutes. 3. The stock solution of the compound to be tested was diluted with DMSO to obtain a 0.2 mM solution, and then diluted with HBSS (10 mM HEPES, pH 7.4) to obtain a 1 µM working solution. A blank control group was also diluted with DMSO to obtain a 0.2 mM solution, and then diluted with HBSS (10 mM HEPES, pH 7.4) to obtain a 1 µM working solution. The final concentration of DMSO in the culture system was 0.5%. 4. The transport rate of the drug in the apical to basolateral direction was determined: 125 µL of the 1 µM test compound solution was added to a Transwell insert (top compartment), before immediately transferring a 50 µL sample (D0 sample) from the top comparment to a new 96-well plate. The receiving plate wells (basolateral compartment) were filled with 235 µL HBSS (10 mM HEPES, pH 7.4) and incubated at 37°C for 2 hours. 5. Upon completion of the incubation, 50 µL samples were transferred from the donor and acceptor sides to the wells of a new 96-well plate, before adding 4 volumes of cold acetonitrile containing an appropriate internal standard (IS). Prior to LC-MS/MS analysis, 100 µL of the supernatant was taken and mixed with an appropriate volume of ultrapure water. Papp = (VA×[drug]acceptor)/(Area×Time×[drug]initial,donor) [formula] where VA is the volume of the receptor pores (unit:mL), Area is the surface area of the membrane (0.143 cm^2 for a Transwell-96 well permeable support), and time is the total transport time in seconds. Efflux Ratio = Papp(B−A) /Papp(A−B) [formula]

in vitro = settings: dog, MDCK-MDR1, pH 7.4
Experimental: as §5, §6

[5] = Caco-2, apical pH 6.5, basolateral pH 7.4
[6] = female, CD1, mouse, iv, 2 mg/kg
[7] = female, CD1, mouse, po, 10 mg/kg

For `CN(C(=O)C(=O)Nc1cnc(N)c2c1cnn2C)C1COCc2nc(C(F)(F)F)ccc21` (centres unmarked) [Compound P9], the CLint scaled at 1 µM [1] was 5 mL/min/kg, the IC50 (HCT116-MTAPdel) was 24 nM and the “HCT116WT IMTAPdel selectivity” value (HCT116-MTAPdel) was 59. It also gave an IC50 (HCT116-MTAPwt) of 1420 nM.
Compound `CN(C(=O)C(=O)Nc1cnc(N)c2c1cnn2C)[C@@H]1COCc2nc(C(F)(F)F)ccc21` [Compound P9a] has a CLint scaled at 1 µM [1] of 2.1 mL/min/kg, an efflux ratio ([2]; Caco-2, Efflux Ratio = Papp(B-A)/Papp(A-B)) of 2.9 and a Papp A→B [2, 5] of 8.65 ×10⁻⁶ cm/s. It also gave a Papp B→A [2, 5] of 25.1 ×10⁻⁶ cm/s, an IC50 (SDMA/HCT116-MTAPwt) of 2450 nM and an F ([3]; female, CD1, mouse) of 77%. For the same compound, the AUC(0-t) [3, 6] was 3990 ng·h/mL, the C0 [3, 6] was 5650 ng/mL and the clearance [3, 6] was 8.3 mL/min/kg. The half-life [3, 6] was 1.2 h, the AUC(0-t) [3, 7] was 15400 ng·h/mL and the Cmax [3, 7] was 10800 ng/mL. It also gave a Tmax [3, 7] of 0.25 h, a half-life [3, 7] of 1.1 h and an IC50 (HCT116-MTAPdel) of 12 nM. For the same compound, the “HCT116WT IMTAPdel selectivity” value (HCT116-MTAPdel) was 333, the IC50 (SDMA/HCT116-MTAPdel) was 0.9 nM and the “Selectivity wt/MTAPdel” value (SDMA/HCT116-MTAPdel) was 2722. The CLint scaled at 1 µM [4] was 10 mL/min/kg and the IC50 (HCT116-MTAPwt) was 4000 nM.
`CCN(C(=O)C(=O)Nc1cnc(N)c2c1cnn2C)[C@@H]1COc2cc(C(F)(F)F)ccc21` [Compound P19a] showed a CLint scaled at 1 h, 1 µM ([1]; microsomes) of 20 mL/min/kg, an F ([3]; mouse) of 59% and an AUC(0-t) at 24 h ([3]; mouse, iv, 2 mg/kg) of 1480 ng·h/mL. It also gave a C0 ([3]; mouse, iv, 2 mg/kg) of 1210 ng/mL, a clearance ([3]; mouse, iv, 2 mg/kg) of 21.5 mL/min/kg and a half-life ([3]; mouse, iv, 2 mg/kg) of 2.1 h. It also gave an AUC(0-t) at 24 h ([3]; mouse, po, 10 mg/kg) of 4390 ng·h/mL, a Cmax ([3]; mouse, po, 10 mg/kg) of 1100 ng/mL and a Tmax ([3]; mouse, po, 10 mg/kg) of 0.5 h. The half-life ([3]; mouse, po, 10 mg/kg) was 6.8 h, the IC50 (HCT116-MTAPdel) was 6 nM and the “HCT116WT IMTAPdel selectivity” value (HCT116-MTAPdel) was 181. It also gave a CLint scaled at 1 h, 1 µM [4] of 110 mL/min/kg and an IC50 (HCT116-MTAPwt) of 1080 nM.
In the case of `Cn1ncc2c(NC(=O)C(=O)N(CC(F)(F)F)[C@@H]3COc4cc(C(F)(F)F)ccc43)cnc(N)c21` [Compound P20a], the CLint scaled at 1 µM [1] was 19.2 mL/min/kg, the IC50 (HCT116-MTAPdel) was 28 nM and the “HCT116WT IMTAPdel selectivity” value (HCT116-MTAPdel) was 215. It also gave an IC50 (HCT116-MTAPwt) of 6020 nM.
Compound `CCN(C(=O)C(=O)Nc1cnc(N)c2c1cnn2C)[C@@H]1COCc2nc(C(F)(F)F)ccc21` [Compound P28] has a CLint scaled at 1 µM [1] of 4.8 mL/min/kg, an efflux ratio (MDR1 (P-gp)) of 3.2 and a Papp A→B (in vitro) of 10.7 ×10⁻⁶ cm/s. The Papp B→A (in vitro) was 34 ×10⁻⁶ cm/s, the IC50 (HCT116-MTAPdel) was 10 nM and the “HCT116WT IMTAPdel selectivity” value (HCT116-MTAPdel) was 119. For the same compound, the IC50 (HCT116-MTAPwt) was 1190 nM.
For `CN(C(=O)C(=O)Nc1cnc(N)c2c1cnn2C)C1COc2cc(OC(F)(F)F)ccc21` (centres unmarked) [Compound P30], the CLint scaled at 1 µM [1] was 9.4 mL/min/kg, the F ([3]; female, CD1, mouse) was 74% and the AUC(0-t) [3, 6] was 1410 ng·h/mL. It also gave a C0 [3, 6] of 1070 ng/mL, a clearance [3, 6] of 23 mL/min/kg and a half-life [3, 6] of 2 h. For the same compound, the AUC(0-t) [3, 7] was 5150 ng·h/mL, the Cmax [3, 7] was 1850 ng/mL and the Tmax [3, 7] was 0.25 h. The half-life [3, 7] was 1.5 h, the IC50 (HCT116-MTAPdel) was 13 nM and the “HCT116WT IMTAPdel selectivity” value (HCT116-MTAPdel) was 241. For the same compound, the IC50 (HCT116-MTAPwt) was 3140 nM.
Work on `CN(C(=O)C(=O)Nc1cnc(N)c2c1cnn2C)C1COc2cc(S(=O)(=O)C(F)(F)F)ccc21` (centres unmarked) [Compound P33] yielded an efflux ratio (MDR1 (P-gp)) of 4.2, a Papp A→B (in vitro) of 6.86 ×10⁻⁶ cm/s and a Papp B→A (in vitro) of 28.8 ×10⁻⁶ cm/s. The IC50 (HCT116-MTAPdel) was 9 nM, the “HCT116WT IMTAPdel selectivity” value (HCT116-MTAPdel) was 162 and the IC50 (HCT116-MTAPwt) was 1460 nM.
For `Cc1cc(NC(=O)C(=O)N2C[C@@H](C)CC[C@@H]2c2ccc3scnc3c2)cnc1N` [TNG908, reference compound], the IC50 (SDMA/HCT116-MTAPwt) was 2210 nM, the IC50 (HCT116-MTAPdel) was 43 nM and the “HCT116WT IMTAPdel selectivity” value (HCT116-MTAPdel) was 27. The IC50 (SDMA/HCT116-MTAPdel) was 2.6 nM, the “Selectivity wt/MTAPdel” value (SDMA/HCT116-MTAPdel) was 850 and the IC50 (HCT116-MTAPwt) was 1190 nM.
